How the values were obtained:
human CB2 receptors = human CB2 receptors (Homo sapiens (Human), UniProt P34972); experiment: cAMP assay (functional), CHO cells expressing human CB2 receptors; type: cell-based; conditions: functional cAMP assay, CHO cells expressing human CB2; read-out: human CB2 EC50
Experimental: (§1) CHO cells expressing human CB1 or CB2 receptors are seeded 17-24 hours prior to the experiment 50.000 cells per well in a black 96 well plate with flat clear bottom (Corning Costar #3904) in DMEM (Invitrogen No. 31331), 1×HT supplement, with 10% fetal calf serum and incubated at 5% CO2 and 37° C. in a humidified incubator. The growth medium was exchanged with Krebs Ringer Bicarbonate buffer with 1 mM IBMX and incubated at 30° C. for 30 min. Compounds were added to a final assay volume of 100 μl and incubated for 30 min at 30° C. Using the cAMP-Nano-TRF detection kit the assay (Roche Diagnostics) was stopped by the addition of 50 μl lysis reagent (Tris, NaCl, 1.5% Triton X100, 2.5% NP40, 10% NaN3) and 50 μl detection solutions (20 μM mAb Alexa700-cAMP 1:1, and 48 μM Ruthenium-2-AHA-cAMP) and shaken for 2 h at room temperature. The time-resolved energy transfer is measured by a TRF reader (Evotec Technologies GmbH), equipped with a ND:YAG laser as excitation source. The plate is measured twice with the excitation at 355 nm and at the emission with a delay of 100 ns and a gate of 100 ns, total exposure time 10 s at 730 (bandwidth 30 nm) or 645 nm (bandwidth 75 nm), respectively. The FRET signal is calculated as follows: FRET=T730-Alexa730-P (T645-B645) with P=Ru730-B730/Ru645-B645, where T730 is the test well measured at […], T645 is the test well measured at 645 nm, B730 and B645 are the buffer controls at 730 nm and 645 nm, respectively. cAMP content is determined from the function of a standard curve spanning from 10 μM to 0.13 nM cAMP.
(§2) EC50 values were determined using Activity Base analysis (ID Business Solution, Limited). The EC50 values for a wide range of cannabinoid agonists generated from this assay were in agreement with the values published in the scientific literature.

human CB1 receptors = human CB1 receptors (Homo sapiens (Human), UniProt P21554); experiment: cAMP assay (functional), CHO cells expressing human CB1 receptors; type: cell-based; conditions: functional cAMP assay, CHO cells expressing human CB1; read-out: human CB1 EC50
Sequence of human CB1 receptors (P21554 whole entry): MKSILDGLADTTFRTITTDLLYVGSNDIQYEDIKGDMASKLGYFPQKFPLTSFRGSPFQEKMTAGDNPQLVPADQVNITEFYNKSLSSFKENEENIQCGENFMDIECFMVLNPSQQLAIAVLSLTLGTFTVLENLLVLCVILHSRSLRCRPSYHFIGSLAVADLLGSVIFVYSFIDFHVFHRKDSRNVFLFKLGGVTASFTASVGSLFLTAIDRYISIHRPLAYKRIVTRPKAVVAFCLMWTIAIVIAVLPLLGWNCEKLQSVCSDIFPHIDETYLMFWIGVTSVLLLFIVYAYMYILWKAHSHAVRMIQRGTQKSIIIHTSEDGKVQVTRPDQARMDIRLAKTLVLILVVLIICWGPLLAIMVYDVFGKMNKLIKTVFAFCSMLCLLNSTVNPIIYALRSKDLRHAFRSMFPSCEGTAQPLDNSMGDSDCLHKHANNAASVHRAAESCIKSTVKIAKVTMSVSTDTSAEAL
Experimental: as §1, §2

Sequence of human CB2 receptors (P34972 whole entry): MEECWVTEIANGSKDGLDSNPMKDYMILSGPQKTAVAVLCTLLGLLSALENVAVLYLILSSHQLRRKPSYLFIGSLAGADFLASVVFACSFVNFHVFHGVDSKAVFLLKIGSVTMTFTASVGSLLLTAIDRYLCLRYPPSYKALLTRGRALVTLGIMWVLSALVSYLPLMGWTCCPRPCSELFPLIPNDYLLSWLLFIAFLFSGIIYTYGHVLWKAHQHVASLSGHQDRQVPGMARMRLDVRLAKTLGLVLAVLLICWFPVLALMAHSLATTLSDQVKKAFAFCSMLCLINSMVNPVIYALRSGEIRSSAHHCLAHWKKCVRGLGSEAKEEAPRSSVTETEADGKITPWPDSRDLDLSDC

Compound	EC50 (human CB2 receptors) [nM]	EC50 (human CB1 receptors) [nM]
CC1(C)CC(C(N)=O)N(C(=O)c2cnc(N3CC(F)(F)C3)c(OCC3CC3)n2)C1 (stereo not drawn) [Example 35, 1-[6-Cyclopropylmethoxy-5-(3,3-difluoro-azetidin-1-yl)-pyrazine-2-carbonyl]-4,4-dimethyl-pyrrolidine-2-carboxylic acid amide]	11.5	> 10000
CC1(O)C[C@@H](C(N)=O)N(C(=O)c2cnc(N3CC(F)(F)C3)c(OCC3CC3)n2)C1 (stereo partly drawn) [Example 41, (2S)-1-[6-(Cyclopropylmethoxy)-5-(3,3-difluoroazetidin-1-yl)pyrazine-2-carbonyl]-4-hydroxy-4-methylpyrrolidine-2-carboxamide]	90	> 10000
NC(=O)[C@@H]1CC(F)(F)CN1C(=O)c1cnc(N2CC(F)(F)C2)c(OCC(F)F)n1 [Example 42, (2S)-1-[5-(3,3-Difluoroazetidin-1-yl)-6-(2,2-difluoroethoxyl)pyrazine-2-carbonyl]-4,4-difluoro-pyrrolidine-2-carboxamide]	310	> 10000

Source: patent US9512141B2, “Pyrazine derivatives as CB2 receptor agonists” (Hoffmann-La Roche Inc., priority 2012, dated 2016)
